Measured values published in US20250171404A1, “PCNA INHIBITORS AND USES THEREOF” (CITY OF HOPE, priority 2022, published 2025).

How the values were obtained:
γH2A.X = γH2A.X Western blot (DNA damage marker); format: cell-based, human
[1] = Oral pharmacokinetic study in mice; format: in vivo, ES1^e/SCID mice
Method: FIGS. 4A-4H. Pharmacokinetics and anti-tumor growth activity of AOH1996 in vivo. FIG. 4A: After oral administration, the plasma concentrations of AOH1996 from three male and three female ES1^e/SCID mice at the indicated time points were averaged and graphed ±S.D. The inset contains PK parameters determined by a standard noncompartmental method. FIG. 4B: A similar PK study of AOH1996 was performed in dogs. FIGS. 4C-4E: Mice bearing the xenograft tumors of neuroblastoma (FIG. 4C: SK-N-BE(2)c), breast cancer (FIG. 4D: MDA-MB-468), and small-cell lung cancer (FIG. 4E: H82) were given vehicle only (black) or 40 mg/kg of AOH1996 (grey) twice daily immediately after the first measurement. Tumor sizes were measured by a dial caliper each week. Tumor volumes (0.4×L×W^2) were averaged and graphed ±S.E. (*, P<0.01). FIG. 4F: Animal body weight was monitored throughout the studies as an indicator of toxicity. Shown is a typical study results from the study of the SK-N-BE(2)c tumor model described in (FIG. 4C). FIG. 4G: The levels of phosphor-Chk1 (pChk1) and γH2A.X in SK-N-BE(2)c derived tumor samples were analyzed by IHC. Shown are representative images taken from tumors treated by vehicle only or by 40 mg/kg AOH1996. FIG. 4H: ES1^e/SCID mice bearing SK-N-AS derived xenograft tumors were treated with either 80 mg/kg of AOH1996 (black, n=7) for 8 d beginning 8 d after tumor implantation, 15 mg/kg of CPT-11 (n=8) for 3 d beginning 12 d after tumor implantation, or both agents (combination, n=8) under the same dosages and schedules as they were dosed alone. Mice implanted with the same tumor and left untreated were used as control (n=8). Shown are the survival graphs. The p values determined by the Log-rank (Mantel-Cox) test between combination treatment and each of the control groups are p=0.0003 (Combination vs. NoRx), p=0.005 (Combination vs. AOH1996 alone), and p=0.024 (Combination vs. CPT-11 alone).
The improved stability of AOH1996 (FIGS. 12A-12E) translated into a significant benefit in the pharmacokinetics (PK).
Pharmacokinetic (PK) study in animals. An oral dosing solution was prepared by dissolving AOH1996 (40 mg) in a mixture of Kolliphor EL (840 mg) and Poloxamer P124 (120 mg). For the mouse study, blood samples were collected from ES1^e/SCID mice (3 male and 3 female) per dosing group by cardiac puncture at 10, 20, and 30 min and 1, 2, 4, 6, and 24 h after dosing. For the dog study, blood samples were collected from 3 male beagle dogs per dosing group by venipuncture of peripheral veins at 5, 15, and 30 min and 1, 2, 4, 8, 12, and 24 h after dosing. Following removal of blood cells, plasma concentration of AOH1996 was determined by LC-MS/MS as described (Gu et al., 2018). Oral PK was determined using standard non-compartmental methods.

[2] = biological target: T1, PCNA interaction with RPB1 (Homo sapiens, UniProt P12004); experiment: PCNA interaction with RPB1 (immunoprecipitation, western blotting); format: cell-based; settings: SK-N-AS
T1 construct: expressed in transfected cells; host or cells: SK-N-AS (FLAG-RPB1 exogenous; PCNA endogenous)
Method: FIGS. 5A-5E. Modulation of PCNA interaction with RNA polymerase II. FIG. 5A: Chromatin-bound (CB) proteins were fractioned from HEK293T cells expressing FLAG-tagged PCNA after the cells were treated with or without 500 nM AOH1996. Proteins in complex with FLAG-PCNA were immune-precipitated and analyzed by mass spectrometry. Shown are numbers of proteins whose abundances were altered (grey) or unaltered (black) by more than 2-fold by AOH1996 treatment. FIG. 5B: SK-N-AS cells exogenously expressing a FLAG-tagged RPB1 gene were fractioned before and after being treated with 500 nM AOH1996 overnight. PCNA in complex with chromatin-bound (CB) FLAG-RBP1 were analyzed by western blotting. FIG. 5C: Human SK-N-AS cells were treated with UV in the presence or absence of AOH1996 (AOH) or R9-caPep (caPep). Whole cell extracts were analyzed by western blotting. FIG. 5D: Cells exogenously expressing FLAG-tagged wildtype RPB1 or FLAG-tagged APIM-mutant RPB1 gene were fractioned. PCNA in complex with chromatin-bound (CB) FLAG-RBP1 were analyzed by western blotting. FIG. 5E: HEK293T cells were transiently transfected with a FLAG-tagged wildtype RPB1 (APIM WT) gene or mutant RPB1 gene (APIM mutant). The intracellular MCM7 and RBP1 (both the hypo-phosphorylated RNAPIIa and hyper-phosphorylated RNAPIIo forms) were analyzed by western blot after cells were treated by the indicated agents and/or UV.
Modulating PCNA interaction with transcription machinery.
Cell fractionation and immunoprecipitation. Cells were fractionated as previously described (Li et al., 2018). Briefly, intact nuclei isolated following osmotic lysis were homogenized using a 21 G needle. Chromatin was pelleted by centrifugation and incubated overnight at 4° C. with benzonase in two volumes of nuclease buffer (20 mM HEPES pH 7.5, 1.5 mM MgCl2, 1 mM EDTA, 150 mM KCl, 10% glycerol, 0.5 U μl-1 benzonase). The resulting supernatant was collected as the CB fraction. Alternatively, we sequentially incubated the chromatin pellet with RNase A and benzonase and collected the supernatants after each digestion as the CB:RNA+ and CB:RNA− fractions, respectively (Li et al., 2018).

COc1cccc(Oc2ccccc2NC(=O)CNC(=O)c2cccc3ccccc23)c1 [AOH1996, N-(2-((2-(3-methoxyphenoxy)phenyl)amino)-2-oxoethyl)-1-naphthamide]
γH2A.X levels, cancer vs non-malignant cells (γH2A.X; 500 nM, SK-N-BE(2)c): caused accumulation of DNA damages as measured by γH2A.X levels in the SK-N-BE(2)c cancer cells, but not in non-malignant cells
γH2A.X levels, wildtype RPB1 vs Y418A mutant cells (γH2A.X; SK-N-AS, overnight): caused substantially more DNA damages as measured by γH2A.X levels in cells containing wildtype RPB1 allele than in cells homozygous of the Y418A mutant allele
half-life ([1]; 40 mg/kg, mice): 4.33 h
increase in area under curve (AUC) vs AOH1160 ([1]; 40 mg/kg, mice): ~4%
increase in half-life vs AOH1160 ([1]; 40 mg/kg, mice): ~27%
increase in peak concentration (Cmax) vs AOH1160 ([1]; 40 mg/kg, mice): ~40%
absorption into circulation ([1]; animals, data not shown): ~90%
PCNA interaction with RPB1 ([2]; chromatin-bound): enhanced interaction between PCNA and RPB1
RPB1 levels ([2]; whole cell extracts): depleted RPB1 in cancer cells
